Experimental data reported in ChEMBL document CHEMBL1201862, “PubChem BioAssay data set” (2004).
Calls of active or inactive are those of the source.

Assays:
[1] = NIH-3T3 fibroblast cytotoxicity, dose response, cytotoxicity control, cell-based, fluorescence, Alamar Blue, secondary assay (AID 2327); type: functional;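 further: NIH-3T3 mouse fibroblasts cultured with fluconazole at 8 µg/mL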
HEK293 [2] = assay: inhibition of NOD1-driven NF-kB reporter – cell-based, luminescence, uHTS, primary screen (AID 1578); type: functional; conditions: Homo sapiens
HEK293 [3] = assay: cells; type: functional, cell-based; conditions: Homo sapiens
[4] = fluconazole-exposed Candida albicans growth modulators – fluorescence, retest, confirmation (AID 2467); type: functional, cell-based
HEK293 [5] = assay: cells; type: functional, cell-based; conditions: Homo sapiens; remark: listed apart in the source
[6] = molecular target: Nucleotide-binding oligomerization domain-containing protein 2 (Homo sapiens, UniProt Q9HC29); assay: inhibition of NOD2-driven NF-kB reporter – cell-based, luminescence, uHTS, HEK293 (AID 1566); type: functional
Chain of Nucleotide-binding oligomerization domain-containing protein 2 (Q9HC29 whole entry, the tested form may be a part): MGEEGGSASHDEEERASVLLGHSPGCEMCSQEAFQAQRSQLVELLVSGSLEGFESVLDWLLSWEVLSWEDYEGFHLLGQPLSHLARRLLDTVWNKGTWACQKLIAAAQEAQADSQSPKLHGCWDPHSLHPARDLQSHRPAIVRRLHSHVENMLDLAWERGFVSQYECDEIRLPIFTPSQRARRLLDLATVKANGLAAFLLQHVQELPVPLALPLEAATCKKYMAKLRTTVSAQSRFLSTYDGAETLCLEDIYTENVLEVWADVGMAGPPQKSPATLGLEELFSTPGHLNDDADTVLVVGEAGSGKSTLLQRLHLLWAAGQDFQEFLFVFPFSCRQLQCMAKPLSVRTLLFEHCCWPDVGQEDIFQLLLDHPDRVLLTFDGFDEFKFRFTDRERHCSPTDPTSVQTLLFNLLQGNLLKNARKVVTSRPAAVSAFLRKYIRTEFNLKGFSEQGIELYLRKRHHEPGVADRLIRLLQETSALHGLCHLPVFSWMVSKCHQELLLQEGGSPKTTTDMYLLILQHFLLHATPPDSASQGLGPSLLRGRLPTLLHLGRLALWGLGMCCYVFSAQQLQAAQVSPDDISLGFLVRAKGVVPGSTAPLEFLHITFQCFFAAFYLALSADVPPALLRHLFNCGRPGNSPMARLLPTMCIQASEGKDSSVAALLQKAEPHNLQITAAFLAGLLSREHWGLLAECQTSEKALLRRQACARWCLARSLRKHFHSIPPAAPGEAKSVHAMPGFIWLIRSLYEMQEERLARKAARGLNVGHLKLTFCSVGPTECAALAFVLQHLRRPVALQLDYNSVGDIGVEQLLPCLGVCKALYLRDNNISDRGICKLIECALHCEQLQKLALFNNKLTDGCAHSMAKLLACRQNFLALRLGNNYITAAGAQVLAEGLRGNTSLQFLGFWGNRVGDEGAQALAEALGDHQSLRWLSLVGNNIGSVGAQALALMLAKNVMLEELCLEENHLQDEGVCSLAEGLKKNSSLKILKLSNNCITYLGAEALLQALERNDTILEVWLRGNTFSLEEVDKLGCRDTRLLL

HEK293 [7] = assay: NOD2 signaling inhibitors in MDP-stimulated cells, cell-based, uHTS, luminescence (AID 2001); type: functional; conditions: Homo sapiens
[8] = Trypanosoma cruzi growth suppression in host cells – NIH3T3 host cells, beta-gal luminescence, confirmation (AID 2044); type: functional, cell-based;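 further: intracellular parasites grown in NIH/3T3 mouse fibroblasts as host cells; luminescent beta-galactosidase reporter signal from transgenic T. cruzi replicating inside host cells; inhibitors lower the luminescence signal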
HEK293 [9] = assay: cells; type: functional, cell-based; conditions: Homo sapiens; remark: listed apart in the source
[10] = NIH3T3 cell viability loss – ATP luminescence, mouse fibroblasts, counter-screen, dose response (AID 2010); type: functional, cell-based;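 further: cells exposed to compound for about 90 hours before reading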
[11] = molecular target: T1, Heat shock factor protein 1 (Mus musculus, UniProt P38532); assay: enhancement of HSF1-driven luciferase signal – cell-based, NIH3T3, luminescence, dose retest, confirmation (AID 435004); type: functional;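 further: stress induced by proteasome inhibitor MG132 added 30 min after compound; luciferase reporter driven by HSF1 response element in NIH3T3 cells; actives raise luminescence as potentiators of the MG132 stress response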
T1 sequence (P38532 whole entry): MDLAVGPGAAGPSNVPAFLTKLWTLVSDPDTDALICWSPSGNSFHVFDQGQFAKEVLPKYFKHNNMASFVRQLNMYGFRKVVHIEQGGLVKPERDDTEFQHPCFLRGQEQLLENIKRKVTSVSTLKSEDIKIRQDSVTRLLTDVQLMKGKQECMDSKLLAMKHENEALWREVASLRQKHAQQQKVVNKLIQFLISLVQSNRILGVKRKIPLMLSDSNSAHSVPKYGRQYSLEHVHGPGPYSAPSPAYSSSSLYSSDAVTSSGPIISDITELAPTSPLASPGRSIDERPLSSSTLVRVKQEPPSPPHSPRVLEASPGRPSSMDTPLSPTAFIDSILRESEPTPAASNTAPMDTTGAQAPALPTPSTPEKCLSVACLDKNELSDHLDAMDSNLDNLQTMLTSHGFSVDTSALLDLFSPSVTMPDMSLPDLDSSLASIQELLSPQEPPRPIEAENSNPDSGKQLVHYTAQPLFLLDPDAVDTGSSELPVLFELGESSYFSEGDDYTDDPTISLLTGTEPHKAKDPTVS

[12] = reduction of Shn3 3'UTR-driven luciferase in osteoblasts – cell-based, Clone20 osteoblasts, firefly luciferase, cherry-picked, dose response (AID 624132); type: functional;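 further: firefly luciferase luminescence from reporter carrying the Shn3 3'UTR in osteoblasts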
[13] = loss of viability in HepG2 cells – cell-based, CellTiter-Glo, cherry-picked, cytotoxicity control for Shn3 inhibitor project, dose response (AID 624134); type: functional
[14] = non-specific 3'UTR reporter inhibition in Clone20-Shn3RL – cell-based, Renilla luciferase, cherry-picked, counter-screen for Shn3 inhibitor project, dose response (AID 624133); type: functional
[15] = general cell-killing toxicity readout – plate reader, dry powder samples, cytotoxicity control for PAX8 inhibitor project, dose response (AID 743021); type: functional, cell-based
[16] = molecular target: Intestinal-type alkaline phosphatase (Mus musculus, UniProt P24822); assay: PubChem AID 488785; type: functional
Chain of Intestinal-type alkaline phosphatase (Mus musculus, UniProt P24822) (P24822 whole entry): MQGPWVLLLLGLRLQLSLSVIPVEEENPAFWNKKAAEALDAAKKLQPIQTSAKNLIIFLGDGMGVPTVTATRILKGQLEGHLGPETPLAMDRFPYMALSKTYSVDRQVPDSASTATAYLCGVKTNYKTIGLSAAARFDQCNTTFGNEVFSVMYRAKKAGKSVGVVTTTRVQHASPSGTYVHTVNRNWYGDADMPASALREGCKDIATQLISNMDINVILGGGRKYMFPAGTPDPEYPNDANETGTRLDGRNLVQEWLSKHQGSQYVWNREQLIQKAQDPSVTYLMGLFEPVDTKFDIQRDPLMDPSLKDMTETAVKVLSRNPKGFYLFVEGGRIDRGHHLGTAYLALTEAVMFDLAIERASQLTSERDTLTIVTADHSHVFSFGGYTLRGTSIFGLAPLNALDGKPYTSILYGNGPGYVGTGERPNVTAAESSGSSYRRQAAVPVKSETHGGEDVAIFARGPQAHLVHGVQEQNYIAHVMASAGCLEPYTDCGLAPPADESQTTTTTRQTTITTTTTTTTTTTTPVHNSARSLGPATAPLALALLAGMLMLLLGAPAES

[17] = molecular target: T2, Alkaline phosphatase, tissue-nonspecific isozyme (Homo sapiens, UniProt P05186); assay: TNAP enzyme inhibition by screening hits, dose response, selectivity assay for mouse IAP inhibitor project, biochemical, human TNAP, uHTS hits (AID 488906); type: functional
T2 sequence (P05186 whole entry): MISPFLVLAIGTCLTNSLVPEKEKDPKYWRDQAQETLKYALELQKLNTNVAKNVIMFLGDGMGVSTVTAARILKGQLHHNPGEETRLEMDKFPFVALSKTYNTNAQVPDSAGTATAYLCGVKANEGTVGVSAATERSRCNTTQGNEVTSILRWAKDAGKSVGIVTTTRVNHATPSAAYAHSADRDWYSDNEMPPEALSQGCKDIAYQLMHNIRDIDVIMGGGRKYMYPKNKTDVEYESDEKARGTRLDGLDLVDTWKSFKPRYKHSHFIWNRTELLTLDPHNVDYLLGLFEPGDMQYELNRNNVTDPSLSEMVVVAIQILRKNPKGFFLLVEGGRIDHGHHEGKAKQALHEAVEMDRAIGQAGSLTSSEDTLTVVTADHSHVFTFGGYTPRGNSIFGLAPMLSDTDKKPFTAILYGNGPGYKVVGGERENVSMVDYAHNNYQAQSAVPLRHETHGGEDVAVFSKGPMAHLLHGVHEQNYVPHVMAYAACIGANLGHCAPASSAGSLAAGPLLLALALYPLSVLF

[18] = molecular target: Intestinal-type alkaline phosphatase (Homo sapiens, UniProt P09923); assay: inhibition of human intestinal alkaline phosphatase – biochemical, dose response (AID 488876); type: functional
Chain of Intestinal-type alkaline phosphatase (Homo sapiens, UniProt P09923) (P09923 whole entry): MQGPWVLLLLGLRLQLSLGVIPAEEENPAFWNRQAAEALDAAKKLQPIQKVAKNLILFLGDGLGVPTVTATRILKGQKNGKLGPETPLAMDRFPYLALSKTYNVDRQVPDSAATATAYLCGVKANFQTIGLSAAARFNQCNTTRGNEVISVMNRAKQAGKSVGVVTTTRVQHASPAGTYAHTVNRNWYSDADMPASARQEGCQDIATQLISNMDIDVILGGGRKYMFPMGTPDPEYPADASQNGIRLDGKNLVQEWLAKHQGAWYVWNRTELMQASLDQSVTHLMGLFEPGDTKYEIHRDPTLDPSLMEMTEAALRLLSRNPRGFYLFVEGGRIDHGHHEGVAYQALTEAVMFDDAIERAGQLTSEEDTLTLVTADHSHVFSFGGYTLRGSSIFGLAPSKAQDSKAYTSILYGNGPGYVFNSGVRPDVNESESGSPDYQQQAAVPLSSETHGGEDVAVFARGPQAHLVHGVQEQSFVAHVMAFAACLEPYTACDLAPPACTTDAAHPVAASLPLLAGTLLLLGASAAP

[19] = molecular target: T3, Long-chain-fatty-acid--AMP ligase FadD28 (Mycobacterium tuberculosis, UniProt P9WQ59); assay: Fluorescence polarization aasay to screen for inhibitors that compete for the binding of FadD28 to a bisubstrate Measured in Biochemical System Using Plate Reader - 2147-01_Inhibitor_Dose_CherryPick_Activity.; type: functional, Mycobacterium tuberculosis H37Rv
T3 sequence (P9WQ59 whole entry): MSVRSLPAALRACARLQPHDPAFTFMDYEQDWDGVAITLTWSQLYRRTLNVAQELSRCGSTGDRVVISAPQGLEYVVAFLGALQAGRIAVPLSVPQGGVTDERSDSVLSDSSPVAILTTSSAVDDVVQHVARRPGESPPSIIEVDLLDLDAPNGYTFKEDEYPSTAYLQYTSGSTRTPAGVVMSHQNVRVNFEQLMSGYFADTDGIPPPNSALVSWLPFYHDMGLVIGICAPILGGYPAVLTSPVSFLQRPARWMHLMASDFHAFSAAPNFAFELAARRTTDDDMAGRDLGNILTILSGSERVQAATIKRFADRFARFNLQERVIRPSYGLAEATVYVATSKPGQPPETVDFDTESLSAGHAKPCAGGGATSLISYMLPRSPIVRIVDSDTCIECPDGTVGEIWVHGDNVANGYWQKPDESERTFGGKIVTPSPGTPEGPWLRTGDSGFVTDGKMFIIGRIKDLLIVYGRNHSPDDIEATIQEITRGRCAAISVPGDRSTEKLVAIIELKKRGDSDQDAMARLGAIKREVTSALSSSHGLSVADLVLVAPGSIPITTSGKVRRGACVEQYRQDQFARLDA

Exodeoxyribonuclease V = Exodeoxyribonuclease V (Escherichia coli (strain K12), UniProt P04993+P07648+P08394); assay: RecBCD inhibition via phage-restricted bacterial growth – absorbance, V66 E. coli, mutant T4 phage, counter-screen for AddAB inhibitor project, dose response (AID 492957); type: functional, cell-based, Escherichia coli str. K-12 substr. MG1655
Chain of Exodeoxyribonuclease V (P04993 whole entry): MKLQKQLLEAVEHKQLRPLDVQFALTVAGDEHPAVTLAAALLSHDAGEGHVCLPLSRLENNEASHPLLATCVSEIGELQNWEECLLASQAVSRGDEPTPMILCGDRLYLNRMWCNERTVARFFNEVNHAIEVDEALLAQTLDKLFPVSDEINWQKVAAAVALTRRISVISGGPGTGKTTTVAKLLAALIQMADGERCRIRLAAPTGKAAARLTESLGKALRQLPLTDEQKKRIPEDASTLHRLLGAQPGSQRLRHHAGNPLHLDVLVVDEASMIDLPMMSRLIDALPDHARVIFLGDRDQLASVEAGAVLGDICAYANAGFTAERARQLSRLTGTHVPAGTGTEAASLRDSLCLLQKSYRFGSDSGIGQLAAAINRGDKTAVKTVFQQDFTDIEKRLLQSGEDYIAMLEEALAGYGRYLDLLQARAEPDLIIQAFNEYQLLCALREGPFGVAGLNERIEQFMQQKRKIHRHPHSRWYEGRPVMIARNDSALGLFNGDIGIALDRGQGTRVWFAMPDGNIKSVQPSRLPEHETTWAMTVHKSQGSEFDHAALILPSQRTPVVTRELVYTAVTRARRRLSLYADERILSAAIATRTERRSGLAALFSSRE
Chain of Exodeoxyribonuclease V (P07648 whole entry): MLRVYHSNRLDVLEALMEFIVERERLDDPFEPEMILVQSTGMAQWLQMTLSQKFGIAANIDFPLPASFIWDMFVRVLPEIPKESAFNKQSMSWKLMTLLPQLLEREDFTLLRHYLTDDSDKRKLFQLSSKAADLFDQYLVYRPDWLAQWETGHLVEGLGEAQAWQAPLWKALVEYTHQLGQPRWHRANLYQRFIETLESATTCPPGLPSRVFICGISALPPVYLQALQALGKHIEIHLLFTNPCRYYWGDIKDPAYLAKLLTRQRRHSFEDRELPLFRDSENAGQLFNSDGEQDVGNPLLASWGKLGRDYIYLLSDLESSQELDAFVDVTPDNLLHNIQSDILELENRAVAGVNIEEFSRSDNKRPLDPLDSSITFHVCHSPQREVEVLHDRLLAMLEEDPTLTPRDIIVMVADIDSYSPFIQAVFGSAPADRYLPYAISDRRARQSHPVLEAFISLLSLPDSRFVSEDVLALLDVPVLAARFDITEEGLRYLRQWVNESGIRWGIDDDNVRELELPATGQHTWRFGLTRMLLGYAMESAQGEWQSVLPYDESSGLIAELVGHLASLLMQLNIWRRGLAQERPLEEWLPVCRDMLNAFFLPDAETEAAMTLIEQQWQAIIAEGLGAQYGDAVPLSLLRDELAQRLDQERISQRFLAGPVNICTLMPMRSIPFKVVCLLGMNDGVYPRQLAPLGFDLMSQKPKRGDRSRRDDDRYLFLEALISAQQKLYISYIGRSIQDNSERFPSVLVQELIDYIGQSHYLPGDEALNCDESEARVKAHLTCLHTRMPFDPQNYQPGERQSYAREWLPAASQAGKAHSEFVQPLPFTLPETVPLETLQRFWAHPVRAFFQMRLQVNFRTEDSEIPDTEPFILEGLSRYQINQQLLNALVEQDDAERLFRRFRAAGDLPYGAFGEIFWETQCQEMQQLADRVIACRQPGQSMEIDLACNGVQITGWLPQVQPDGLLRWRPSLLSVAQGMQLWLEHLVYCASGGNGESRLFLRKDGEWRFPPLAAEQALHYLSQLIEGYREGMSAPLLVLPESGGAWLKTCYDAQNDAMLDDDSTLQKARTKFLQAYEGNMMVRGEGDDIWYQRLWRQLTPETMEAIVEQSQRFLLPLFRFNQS
Chain of Exodeoxyribonuclease V (P08394 whole entry): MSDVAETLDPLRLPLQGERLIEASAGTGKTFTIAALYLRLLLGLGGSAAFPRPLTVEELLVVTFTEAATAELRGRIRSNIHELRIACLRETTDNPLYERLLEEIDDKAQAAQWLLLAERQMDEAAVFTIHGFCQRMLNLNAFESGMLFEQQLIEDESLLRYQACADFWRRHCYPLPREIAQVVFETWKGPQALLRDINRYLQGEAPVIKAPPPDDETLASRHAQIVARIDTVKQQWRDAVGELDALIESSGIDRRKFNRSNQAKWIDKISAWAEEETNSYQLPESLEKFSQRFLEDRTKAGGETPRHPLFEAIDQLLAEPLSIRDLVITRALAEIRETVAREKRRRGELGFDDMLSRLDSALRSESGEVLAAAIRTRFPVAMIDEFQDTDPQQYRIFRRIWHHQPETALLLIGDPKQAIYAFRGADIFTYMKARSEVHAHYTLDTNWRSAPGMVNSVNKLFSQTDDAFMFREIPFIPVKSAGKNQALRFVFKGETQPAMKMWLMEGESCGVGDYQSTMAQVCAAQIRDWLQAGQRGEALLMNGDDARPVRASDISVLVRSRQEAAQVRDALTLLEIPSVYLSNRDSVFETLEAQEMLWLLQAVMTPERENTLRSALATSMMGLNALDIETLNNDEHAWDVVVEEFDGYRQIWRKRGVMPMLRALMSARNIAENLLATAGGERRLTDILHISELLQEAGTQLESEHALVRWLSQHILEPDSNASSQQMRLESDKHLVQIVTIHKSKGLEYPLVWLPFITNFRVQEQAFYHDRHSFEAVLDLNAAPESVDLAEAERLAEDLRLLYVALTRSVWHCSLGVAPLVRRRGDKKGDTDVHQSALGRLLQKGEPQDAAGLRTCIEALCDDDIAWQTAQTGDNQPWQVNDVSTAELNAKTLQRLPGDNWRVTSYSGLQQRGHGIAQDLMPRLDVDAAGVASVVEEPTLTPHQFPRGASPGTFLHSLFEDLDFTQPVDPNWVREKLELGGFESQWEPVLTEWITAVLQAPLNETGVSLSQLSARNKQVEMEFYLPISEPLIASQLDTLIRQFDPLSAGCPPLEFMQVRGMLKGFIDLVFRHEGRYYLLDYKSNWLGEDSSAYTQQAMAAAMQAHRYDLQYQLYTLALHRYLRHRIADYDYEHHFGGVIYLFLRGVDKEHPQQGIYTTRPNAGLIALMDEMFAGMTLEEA

[20] = Counterscreen for AddAB inhibitors: absorbance-based bacterial cell-based high throughput dose response assay for inhibitors of bacterial viability. [Related pubchem assays (depositor defined):AID435030, AID449728, AID449731, AID488942, AID488955, AID488956]; type: functional
[21] = molecular target: Heat shock protein HSP 90-alpha (Homo sapiens, UniProt P07900); type: functional, organism-based

**Q.** For `O=[N+]([O-])c1cccnc1S(=O)(=O)c1ccccc1`, which EC50 [1] is on record?
**A.** Its EC50 is 4.24 µM (inconclusive).

**Q.** What about the EC50 (HEK293 [2]) of the same compound?
**A.** The EC50 was 12.4 µM (active).

**Q.** And the IC50 (HEK293 [3])?
**A.** The IC50 was 2.38 µM (active).

**Q.** What about the EC50 [4] of the same compound?
**A.** The EC50 was 2.63 µM (active).

**Q.** And the IC50 (HEK293 [5])?
**A.** Its IC50 is 11.6 µM (active).

**Q.** What about the EC50 [6] of the same compound?
**A.** Its EC50 is > 20 µM (inactive).

**Q.** And the IC50 (HEK293 [7])?
**A.** Its IC50 is 4.56 µM (active).

**Q.** What about the EC50 [8] of the same compound?
**A.** The EC50 was 3.71 µM (active).

**Q.** What about the IC50 (HEK293 [9]) of the same compound?
**A.** Its IC50 is > 20 µM (inactive).

**Q.** What about the EC50 [10] of the same compound?
**A.** Its EC50 is 4.16 µM (active).

**Q.** What about the EC50 [11] of the same compound?
**A.** Its EC50 is 11.9 µM (active).

**Q.** What about the AC50 [12] of the same compound?
**A.** Its AC50 is 4.79 µM (active).

**Q.** What about the AC50 [13] of the same compound?
**A.** The AC50 was 51 µM (active).

**Q.** And the AC50 [14]?
**A.** The AC50 was 5.79 µM (active).

**Q.** What about the AC50 [15] of the same compound?
**A.** The AC50 was 24.2 µM (active).

**Q.** Which results are given for `O=C(NN1C(=O)/C(=C/c2ccc(O)cc2)SC1=S)c1ccccc1O`?
**A.** IC50 [16]: 4.68 µM (active); IC50 [17]: > 100 µM (inactive); IC50 [18]: > 100 µM (inactive); AC50 [19]: 61.9 µM (active)

**Q.** Which IC50 (Exodeoxyribonuclease V) does the source give for `O=C1c2ccccc2NC(c2ccc(-c3ccc(C(F)(F)F)cc3)o2)N1O` (configuration not stated) here?
**A.** Its IC50 is > 119 µM (inactive).

**Q.** What about the IC50 [20] of the same compound?
**A.** Its IC50 is > 119 µM (inactive).

**Q.** And the AC50 [21]?
**A.** Its AC50 is 7.23 µM (active).
